Measured values: the NIST ThermoML archive (doi:10.1016/j.jct.2009.05.006)

What was measured:
[1] = xn = mol fraction of the nth substance listed; settings: 298.15 K, 101 kPa, Liquid, Vibrating tube method
[2] = excess molar enthalpy (molar enthalpy of mixing); xn = mol fraction of the nth substance listed; settings: 298.15 K, 101 kPa, Liquid, Calvet calorimetry

BrCCCCBr [1,4-dibromobutane] + CCCCOC(=O)CC
Settings	excess molar enthalpy [kcal/mol]	mass density [kg/m3]
[1], x1 = 0.0993	–	1702.4
[1], x1 = 0.1484	–	1647.38
[1], x1 = 0.2006	–	1590.44
[1], x1 = 0.2485	–	1539.57
[1], x1 = 0.307	–	1478.88
[1], x1 = 0.3593	–	1426.19
[1], x1 = 0.4138	–	1372.46
[1], x1 = 0.4767	–	1312.32
[1], x1 = 0.5324	–	1260.38
[1], x1 = 0.5968	–	1201.95
[1], x1 = 0.6549	–	1150.66
[1], x1 = 0.721	–	1093.83
[1], x1 = 0.787	–	1038.79
[1], x1 = 0.8544	–	984.01
[1], x1 = 0.9302	–	924.33
[2], x2 = 0.0509	0.00574	–
[2], x2 = 0.1183	0.00621	–
[2], x2 = 0.196	0.00287	–
[2], x2 = 0.275	-0.00239	–
[2], x2 = 0.3518	-0.00765	–
[2], x2 = 0.4473	-0.0131	–
[2], x2 = 0.4843	-0.0151	–
[2], x2 = 0.5517	-0.0163	–
[2], x2 = 0.6323	-0.017	–
[2], x2 = 0.7319	-0.016	–
[2], x2 = 0.8302	-0.0124	–
[2], x2 = 0.9193	-0.0086	–

BrCCBr [1,2-dibromoethane] + CCCCOC=O
Settings	excess molar enthalpy, [2] [kcal/mol]	mass density, [1] [kg/m3]
x2 = 0.0489	–	2085.1
x2 = 0.0509	0.0098	–
x2 = 0.0955	–	2008.94
x2 = 0.1197	0.0186	–
x2 = 0.1401	–	1938.46
x2 = 0.1884	–	1864.18
x2 = 0.1992	0.027	–
x2 = 0.2379	–	1790.7
x2 = 0.28	0.032	–
x2 = 0.3095	–	1688.13
x2 = 0.3398	–	1646.07
x2 = 0.3511	0.0332	–
x2 = 0.3993	0.0327	1565.68
x2 = 0.449	0.0315	–
x2 = 0.4831	0.0299	–
x2 = 0.5112	–	1422.24
x2 = 0.5504	0.027	–
x2 = 0.5786	–	1340.18
x2 = 0.6334	0.022	–
x2 = 0.641	–	1266.85
x2 = 0.7029	–	1196.55
x2 = 0.7275	0.016	–
x2 = 0.7738	–	1118.89
x2 = 0.8087	0.0105	–
x2 = 0.8358	–	1053.24
x2 = 0.9111	0.00406	–
x2 = 0.9138	–	973.46

BrCCCCCBr [1,5-dibromopentane] + CCCCOC(C)=O
[2]
Settings	excess molar enthalpy [kcal/mol]
x2 = 0.0669	0.00669
x2 = 0.1499	0.00956
x2 = 0.2436	0.01
x2 = 0.3318	0.00837
x2 = 0.4096	0.00454
x2 = 0.4762	0.000239
x2 = 0.5331	-0.00478
x2 = 0.5566	-0.00765
x2 = 0.5827	-0.00932
x2 = 0.6168	-0.0124
x2 = 0.6927	-0.0151
x2 = 0.7844	-0.0141
x2 = 0.8533	-0.0105
x2 = 0.9377	-0.00574

BrCCBr [1,2-dibromoethane] + CCCCOC(=O)CC
[2]
Settings	excess molar enthalpy [kcal/mol]
x2 = 0.0417	0.00526
x2 = 0.0966	0.00741
x2 = 0.1618	0.00621
x2 = 0.2302	0.00191
x2 = 0.2936	-0.00478
x2 = 0.3529	-0.012
x2 = 0.4091	-0.0179
x2 = 0.4511	-0.022
x2 = 0.4917	-0.0241
x2 = 0.5694	-0.0265
x2 = 0.6594	-0.0263
x2 = 0.7605	-0.0229
x2 = 0.8773	-0.0151

BrCCCCCBr [1,5-dibromopentane] + CCCCOC(=O)CC
[2]
Settings	excess molar enthalpy [kcal/mol]
x2 = 0.0697	0.00741
x2 = 0.1544	0.012
x2 = 0.248	0.0124
x2 = 0.3363	0.00884
x2 = 0.4134	0.00263
x2 = 0.4801	-0.00526
x2 = 0.4924	-0.00884
x2 = 0.5371	-0.0131
x2 = 0.5511	-0.0165
x2 = 0.6257	-0.0206
x2 = 0.7153	-0.021
x2 = 0.8183	-0.016
x2 = 0.9151	-0.00884

BrCCCCCBr [1,5-dibromopentane] + CCCCOC=O
Settings	excess molar enthalpy [kcal/mol]	mass density [kg/m3]
[1], x2 = 0.0756	–	1642.01
[1], x2 = 0.1366	–	1599.08
[1], x2 = 0.2027	–	1551.59
[1], x2 = 0.2682	–	1503.58
[1], x2 = 0.3259	–	1460.47
[1], x2 = 0.3871	–	1413.8
[1], x2 = 0.4492	–	1365.54
[1], x2 = 0.5143	–	1313.85
[1], x2 = 0.5679	–	1270.35
[1], x2 = 0.6274	–	1221.19
[1], x2 = 0.687	–	1170.94
[1], x2 = 0.7958	–	1076.48
[1], x2 = 0.8434	–	1033.97
[1], x2 = 0.9499	–	936.18
[2], x2 = 0.0868	0.0232	–
[2], x2 = 0.1853	0.0394	–
[2], x2 = 0.2872	0.0531	–
[2], x2 = 0.3842	0.0598	–
[2], x2 = 0.4656	0.0605	–
[2], x2 = 0.5328	0.0578	–
[2], x2 = 0.5803	0.0557	–
[2], x2 = 0.6291	0.0521	–
[2], x2 = 0.7084	0.0447	–
[2], x2 = 0.7902	0.0332	–
[2], x2 = 0.8713	0.0215	–
[2], x2 = 0.9437	0.0112	–
